Reference: patent US10849867B2, “Methods and compositions for treating conditions associated with an abnormal inflammatory response” (First Wave Bio, Inc., priority 2015, dated 2020)

Columns and labels:
human LPMCs T cells [1] = assay: Pro-inflammatory cytokine producing LPMC T cells, intracellular staining flow cytometry (Example 10); format: cell-based; conditions: 5 μM, 24 h, relative to vehicle only negative control
Text: Model: Lamina propria mononuclear cells (LPMC) in the human intestine are comprised in part by T cells which mediate pathological processes including inflammatory bowel disease. LPMCs can be isolated from human intestine tissue biopsies. After isolation […] cells remain viable ex vivo under appropriate culture conditions for periods of time that allow ex vivo experiments. These cells can be used to investigate if test agents affect their production of pro-inflammatory cytokines including interferon-gamma (IFN), tumor necrosis factor-alpha (TNF) and interleukin 17A (IL-17A), to determine if a test agent affects the pro-inflammatory cytokines that mediate inflammatory bowel disease, including UC. Cell Isolation and Culture: Cells were obtained from colon biopsy specimens of a human from areas with moderate to severe UC. For the isolation of lamina propria mononuclear […] specimens were initially washed in Hank's balanced salt solution (HBSS) then cut into 0.5-cm pieces, and incubated with stirring in pre-warmed HBSS containing 1 mM DTT at 37° C. for 15 minutes. The supernatant was removed and the sample washed with stirring with HBSS for 5 minutes twice. Samples were incubated with stirring in pre-warmed HBSS containing 5 mM EDTA for 30 minutes. The supernatant was removed and the sample washed with stirring with HBSS for 5 minutes three times. The tissue was then digested further in RPMI 1640 containing 2 mg/ml Liberase and 0.01 ug/ml DNase I for 1 hours at 37° C. with stirring. After digestion, the mononuclear cells in suspension were collected and centrifuged at 400 g for 10 minutes. After two washings in HBS, the pellet was resuspended in a 40% Percoll solution and layered on the top of a Percoll solution (100%, 60%, 40%, and 30% Percoll in HBSS). The tube was centrifuged at 400 g for 25 minutes, and LPMCs at the 60%-40% Percoll layer interface were collected. The isolated cells were counted and checked for viability using 0.1% trypan blue (viability ranged from 86% to 94%). […]

human LPMCs T cells [2] = assay: ΔΨm in human LPMC CD45+CD3+ T cells, JC-1 flow cytometry (Example 12); format: cell-based; conditions: 5 μM, 60 min, JC-1, relative to negative control
Text: The Model-Lamina propria mononuclear cells (LPMC) in the human intestine are comprised in part by T cells which mediate physiological and pathological processes including inflammatory bowel disease. LPMCs can be isolated from human tissue biopsies. After isolation […] cells remain viable ex vivo under appropriate culture conditions for periods of time that allow ex vivo experiments. These cells can be used to investigate mechanisms that regulate their mitochondrial function and survival They contain respiring mitochondria and as such their response to test agents may be assessed. Uncoupling is identified and quantified by a detecting a drop in the electrochemical gradient across the mitochondrial inner membrane (ΔΨm). […] The isolated cells were counted and checked for viability using 0.1% trypan blue (viability ranged from 86% to 94%). […] A flow cytometer FACSVerse flow cytometer and FACSSuite software [BD Biosciences] was used for quantification of JC-1 fluorescence in CD45+CD3+ cells. […] Consequently, mitochondrial depolarization is indicated by a decrease in the red/green fluorescence intensity ratio. […] LPMC CD45+CD3+ T cells were first defined by their fluorescence emission from labeling with eFluor® 450-anti-CD3 antibody and PerCP-Cyanine5.5-[…] antibody. The fluorescence intensity of JC-1 detected at 525 nm and 590 nm in the CD45+CD3+ T cell population was then measured. […]

[3] = cited from earlier work

For `O=C(Nc1ccc([N+](=O)[O-])cc1Cl)c1cc(Cl)ccc1O` [Niclosamide, 5-chloro-N-(2-chloro-4-nitrophenyl)-2-hydroxybenzamide], the “human LPMCs T cells that produce IFN” value (human LPMCs T cells [1]) was “decrease”, the “human LPMCs T cells that produce IL-17A” value (human LPMCs T cells [1]) was “decrease” and the “human LPMCs T cells that produce TNF” value (human LPMCs T cells [1]) was “decrease”. The “change in ΔΨm in human LPMCs T cells” value (human LPMCs T cells [2]) was “decrease”, the water solubility ([3]; at 20° C.) was 5 to 8 µg/mL and the solubility in acetone [3] was “soluble”. The “solubility in ether, ethanol and chloroform” value [3] was “sparingly soluble”.
